Species on record: Rattus norvegicus
Assay: DrugMatrix - Regimen: Daily Repeat
Assay type: toxicity, organism-based, Sprague-Dawley
Parameters: regimen Daily Repeat, gender Male, age 6-8 weeks
Conditions: in vivo, po, 17 mg/kg, route oral GAVAGE, dose level High, vehicle .5 % CMC; for ABSOLUTE BASOPHIL / ABSOLUTE EOSINOPHIL / ABSOLUTE LYMPHOCYTE / ABSOLUTE MONOCYTE / ABSOLUTE SEGMENTED NEUTROPHIL / BASOPHIL / EOSINOPHIL / ERYTHROCYTE COUNT / HEMATOCRIT / HEMOGLOBIN / LEUKOCYTE COUNT / LYMPHOCYTE / MEAN CORPUSCULAR HEMOGLOBIN / MEAN CORPUSCULAR HEMOGLOBIN CONCENTRATION / MEAN CORPUSCULAR VOLUME / MONOCYTE / NEUTROPHIL / NUCLEATED RED BLOOD CELLS / PLATELET COUNT: tissue Blood; for ALANINE AMINOTRANSFERASE / ALBUMIN / ALKALINE PHOSPHATASE / ASPARTATE AMINOTRANSFERASE / BLOOD UREA NITROGEN / CARBON DIOXIDE / CHLORIDE / CHOLESTEROL / CREATININE / GLUCOSE / LACTATE DEHYDROGENASE / LIPASE / PHOSPHORUS / POTASSIUM / SODIUM / TOTAL BILIRUBIN / TOTAL PROTEIN / URIC ACID: tissue Plasma

COc1ccc(C(=O)Nc2c(Cl)cncc2Cl)cc1OC1CCCC1
ABSOLUTE BASOPHIL (120 h, time 5 day): 0 CELLS/uL
ABSOLUTE EOSINOPHIL (120 h, time 5 day): 84.67 CELLS/uL
ABSOLUTE LYMPHOCYTE (120 h, time 5 day): 11281 CELLS/uL
ABSOLUTE MONOCYTE (120 h, time 5 day): 472.33 CELLS/uL
ABSOLUTE SEGMENTED NEUTROPHIL (120 h, time 5 day): 1195.33 CELLS/uL
BASOPHIL (120 h, time 5 day): 0%
EOSINOPHIL (120 h, time 5 day): 0.67%
ERYTHROCYTE COUNT (120 h, time 5 day): 6 x10E6/uL
HEMATOCRIT (120 h, time 5 day): 36.73%
HEMOGLOBIN (120 h, time 5 day): 13.33 G/DL
LEUKOCYTE COUNT (120 h, time 5 day): 13.03 x10E3/uL
LYMPHOCYTE (120 h, time 5 day): 86.33%
MEAN CORPUSCULAR HEMOGLOBIN (120 h, time 5 day): 22.23 pg
MEAN CORPUSCULAR HEMOGLOBIN CONCENTRATION (120 h, time 5 day): 36.3 G/DL
MEAN CORPUSCULAR VOLUME (120 h, time 5 day): 61.23 fL
MONOCYTE (120 h, time 5 day): 3.67%
NEUTROPHIL (120 h, time 5 day): 9.33%
NUCLEATED RED BLOOD CELLS (120 h, time 5 day): 0 /100WBC
PLATELET COUNT (120 h, time 5 day): 1070.67 x10E3/uL
ALANINE AMINOTRANSFERASE (120 h, time 5 day): 64 u/L
ALBUMIN (120 h, time 5 day): 4.1 G/DL
ALKALINE PHOSPHATASE (120 h, time 5 day): 400 u/L
ASPARTATE AMINOTRANSFERASE (120 h, time 5 day): 136.33 u/L
BLOOD UREA NITROGEN (120 h, time 5 day): 13 mg/dL
CARBON DIOXIDE (120 h, time 5 day): 34.33 mmol/L
CHLORIDE (120 h, time 5 day): 101 MEQ/L
CHOLESTEROL (120 h, time 5 day): 65.33 mg/dL
CREATININE (120 h, time 5 day): 0.19 mg/dL
GLUCOSE (120 h, time 5 day): 166.33 mg/dL
LACTATE DEHYDROGENASE (120 h, time 5 day): 276.33 u/L
LIPASE (120 h, time 5 day): 8.33 u/L
PHOSPHORUS (120 h, time 5 day): 11.3 mg/dL
POTASSIUM (120 h, time 5 day): 6.12 MEQ/L
SODIUM (120 h, time 5 day): 149.43 MEQ/L
TOTAL BILIRUBIN (120 h, time 5 day): 0.2 mg/dL
TOTAL PROTEIN (120 h, time 5 day): 6.63 G/DL
URIC ACID (120 h, time 5 day): 1.5 mg/dL
ABSOLUTE BASOPHIL ([…], time 14 day): 0 CELLS/uL
ABSOLUTE EOSINOPHIL ([…], time 14 day): 107.5 CELLS/uL
ABSOLUTE LYMPHOCYTE ([…], time 14 day): 9595.25 CELLS/uL
ABSOLUTE MONOCYTE ([…], time 14 day): 1138.5 CELLS/uL
ABSOLUTE SEGMENTED NEUTROPHIL ([…], time 14 day): 8133.75 CELLS/uL
BASOPHIL ([…], time 14 day): 0%
EOSINOPHIL ([…], time 14 day): 0.5%
ERYTHROCYTE COUNT ([…], time 14 day): 6.06 x10E6/uL
HEMATOCRIT ([…], time 14 day): 34.55%
HEMOGLOBIN ([…], time 14 day): 12.95 G/DL
LEUKOCYTE COUNT ([…], time 14 day): 18.98 x10E3/uL
LYMPHOCYTE ([…], time 14 day): 60.25%
MEAN CORPUSCULAR HEMOGLOBIN ([…], time 14 day): 21.4 pg
MEAN CORPUSCULAR HEMOGLOBIN CONCENTRATION ([…], time 14 day): 37.5 G/DL
MEAN CORPUSCULAR VOLUME ([…], time 14 day): 57.05 fL
MONOCYTE ([…], time 14 day): 5%
NEUTROPHIL ([…], time 14 day): 34.25%
NUCLEATED RED BLOOD CELLS ([…], time 14 day): 0 /100WBC
PLATELET COUNT ([…], time 14 day): 1068 x10E3/uL
ALANINE AMINOTRANSFERASE ([…], time 14 day): 48.25 u/L
ALBUMIN ([…], time 14 day): 3.22 G/DL
ALKALINE PHOSPHATASE ([…], time 14 day): 273 u/L
ASPARTATE AMINOTRANSFERASE ([…], time 14 day): 67 u/L
BLOOD UREA NITROGEN ([…], time 14 day): 14.25 mg/dL
CARBON DIOXIDE ([…], time 14 day): 33.75 mmol/L
CHLORIDE ([…], time 14 day): 100.5 MEQ/L
CHOLESTEROL ([…], time 14 day): 56 mg/dL
CREATININE ([…], time 14 day): 0.24 mg/dL
GLUCOSE ([…], time 14 day): 131 mg/dL
LACTATE DEHYDROGENASE ([…], time 14 day): 107.75 u/L
LIPASE ([…], time 14 day): 9 u/L
PHOSPHORUS ([…], time 14 day): 8.28 mg/dL
POTASSIUM ([…], time 14 day): 5.54 MEQ/L
SODIUM ([…], time 14 day): 148.15 MEQ/L
TOTAL BILIRUBIN ([…], time 14 day): 0.18 mg/dL
TOTAL PROTEIN ([…], time 14 day): 6.12 G/DL
URIC ACID ([…], time 14 day): 0.62 mg/dL

— ChEMBL document CHEMBL3885881, “DrugMatrix”
